In patent US6500815B1, “Substituted 11.beta steroid derivatives, method for preparing same and intermediates of said method, use as medicine and compositions containing them” (Aventis Pharma S.A., priority 1999, dated 2002):

Molecular target: αvβ3 human receptor (vitronectin receptor) (Homo sapiens, UniProt P05106+P06756)
Test: Competition binding test: displacement of the vitronectin/vitronectin receptor (αvβ3) bond
Settings: human vitronectin coated at 2 μg/ml, 3 hours incubation at ambient temperature, 4B12-HRP antibody detection, OD 450 nm, read-out: Competition binding test Vn/VnR (αvβ3) IC50
Description: 1—Study by the Products of the Invention of the Bond Displacement: Vitronectin/Vitronectin Receptor (αvβ3) Protocol 96 well MaxiSorp plates are coated overnight at 4° C., with 100 μl of human vitronectin (cf Yatohgo et al. Cell., Structure and fraction 13: 281-292 (1988) at 2 μg/ml, (dilution in coating buffer).
The following day, the wells are emptied and the ligands (vitronectin) are then fixed (see fixation buffer) for 1 hour at ambient temperature under gentle agitation. The wells are washed six times (see washing buffer), then per well and in this order the following are added:
40 μl of incubation buffer, 10 μl of the diluted product to be tested, (the products are diluted in a 50/50 mixture of DMSO-H2O) 20 μl of αvβ3 human receptor (cf Pytela et al. Methods Enzymol (1987) 144:475) (dilution in incubation buffer, to be adapted according to the batch of receptor and according to the ligand).
The ligand, the αvβ3 human receptor and the products to be studied are incubated for 3 hours at ambient temperature under gentle agitation.
The wells are again washed six times, then incubated for 2 hours at ambient temperature under gentle agitation, in the presence of 100 μl of 4B12-HRP antibody, anti-receptor coupled to a peroxydase (the 4B12-HRP antibody is diluted in incubation buffer. The dilution is to be adapted according to the batch of receptor).
The wells are then washed six times before measurement of the ligand-receptor bond done by the intermediate of a peroxydase visualizing kit (TMP Microwell Peroxydase Substrate System Kirkegaard: Ref. cat. 50-76-00). This kit contains a flask A of substrate (3,3′,5,5′-tetra-methylbenzidine at 0.4 g/l) and a flask B (H2O2 at 0.02% in Citrate/Citric acid buffer). Extemporaneously, a volume of A is mixed with a volume of B, then the reaction mixture is distributed at a rate of 100 μl/wells. The enzymatic reaction develops in 12′ for Vitronectin/αvβ3, and then its evolution is stopped by the addition of 100 μl of 1M phosphoric acid.
The optical density is measured at 450 nm. […]
coating buffer: 0.05 M carbonate, NaOH pH 9.6 fixation buffer: PBS containing 0.5% of BSA (pH 7.4) washing buffer: PBS containing 0.05% of Tween 20 (pH 7.4)
Expression of the Results: the following curve is drawn: the bonding percentage of human vitronectin as a function of the logarithm of the concentration of each product tested. For each product the IC50 is determined according to the following formula:
BO=Maximum bond in the absence of any product
Bmin=Minimum bond in the presence of the highest concentration of the product.

Row | SMILES | IC50 [nM]
1 | C[C@]12C[C@H](CCCCC(NC(=O)OCc3ccccc3)C(=O)O)C3=C4CCC(=NNC5=NCCN5)C=C4CC[C@H]3[C@@H]1CCC2=O (mixture of isomers) [Example 2, 3-[(4,5-Dihydro-1H-imidazol-2-yl)hydrazono]-17-oxo-α-[[(phenylmethoxy)carbonyl]amino]-estra-4,9-diene-11-beta-hexanoic Acid] | 30
2 | C[C@]12C[C@H](CCCCC(=O)O)C3=C4CCC(=NNC(=N)N)C=C4CC[C@H]3[C@@H]1CCC2=O (mixture of isomers) [Example 4, 3-[(Amino-iminomethyl)hydrazono]-17-oxoestra-4,9-dien-11-beta-pentanoic Acid] | 133
3 | C[C@]12C[C@H](CCCCCC(=O)O)C3=C4CCC(=NNC5=NCCCN5)C=C4CC[C@H]3[C@@H]1CCC2=O (mixture of isomers) [Example 6a 90/10, 3-[(1,4,5,6-Tetrahydro-2-pyrimidinyl)-hydrazono]-17-oxo-4,9-diene-11-beta-hexanoic Acid] | 20
4 | C[C@]12C[C@H](CCCCCC(=O)O)C3=C4CCC(=NNC5=NCCCN5)C=C4CC[C@H]3[C@@H]1CCC2=O (mixture of isomers) [Example 6b 60/40, 3-[(1,4,5,6-Tetrahydro-2-pyrimidinyl)-hydrazono]-17-oxo-4,9-diene-11-beta-hexanoic Acid] | 38
5 | C[C@]12C[C@H](CCCCCC(=O)O)C3=C4CCC(=NNC5=NCCN5)C=C4CC[C@H]3[C@@H]1CCC2=O (mixture of isomers) [Example 7, 3-[(4,5-Dihydro-1H-imidazol-2-yl)-hydrazono]-17-oxo-estra-4,9-diene-11-beta-hexanoic Acid] | 25
6 | CC12CC(CCCCC(NC(=O)OCc3ccccc3)C(=O)O)C3=C4CCC(=NNC5=NCCN5)C=C4CCC3C1CCC2O (stereo not drawn) [Example 3, 3-[(4,5-Dihydro-1H-imidazol-2-yl)hydrazono]-17-hydroxy-alpha.-[[(phenylmethoxy)carbonyl]amino]-estra-4,9-diene-11-beta-hexanoic Acid] | 70
7 | C[C@]12C[C@H](CCCCCC(=O)O)C3=C4CC/C(=N\NC(=N)N)C=C4CC[C@H]3[C@@H]1CCC2=O [Example 5a ΔE, 3-[(Amino-iminomethyl)hydrazono]-17-oxo-estra-4,9-diene-11-beta-hexanoic Acid] | 54
8 | C[C@]12C[C@H](CCCCCC(=O)O)C3=C4CC/C(=N/NC(=N)N)C=C4CC[C@H]3[C@@H]1CCC2=O [Example 5b ΔZ, 3-[(Amino-iminomethyl)hydrazono]-17-oxo-estra-4,9-diene-11-beta-hexanoic Acid] | 375
9 | C[C@]12C[C@H](CCCCCC(=O)O)C3=C4CCC(=NNC5=NCCN5)C(Cl)=C4CC[C@H]3[C@@H]1CCC2=O [Example 8, 4-Chloro-3-[(4,5-dihydro-1H-imidazol-2-yl)hydrazono]-17-oxo-estra-4,9-diene-11-beta-hexanoic Acid] | 17
10 | C[C@]12C[C@H](CCCCCC(=O)O)C3=C4CCC(=NNC(=N)N)C(Cl)=C4CC[C@H]3[C@@H]1CCC2=O [Example 9, 3-[(Aminoiminomethyl)hydrazono]-4-chloro-17-oxo-estra-4,9-diene-11-beta-hexanoic Acid] | 1950
